# Source: patent US8273745B2, “Polycyclic acid compounds useful as CRTH2 antagonists and antiallergic agents” (Astellas Pharma Inc, priority 2006, dated 2012)
# How the values were obtained:
# human CRTH2 = molecular target: T1, human CRTH2 (Homo sapiens, UniProt Q9Y5Y4); experiment: Human CRTH2 binding assay (3H-labeled PGD2 binding, membranes of HEK293 cells transfected with human CRTH2); settings: membrane preparation of HEK293 cells with human CRTH2; 2 nM 3H-labeled PGD2; 4° C., 120 minutes; read-out: IC50 (nM), in vitro human CRTH2 binding assay
# T1 construct: expressed in transfected cells; host or cells: HEK293 cells, stably transfected; membrane preparation
# T1 sequence (Q9Y5Y4 1-395): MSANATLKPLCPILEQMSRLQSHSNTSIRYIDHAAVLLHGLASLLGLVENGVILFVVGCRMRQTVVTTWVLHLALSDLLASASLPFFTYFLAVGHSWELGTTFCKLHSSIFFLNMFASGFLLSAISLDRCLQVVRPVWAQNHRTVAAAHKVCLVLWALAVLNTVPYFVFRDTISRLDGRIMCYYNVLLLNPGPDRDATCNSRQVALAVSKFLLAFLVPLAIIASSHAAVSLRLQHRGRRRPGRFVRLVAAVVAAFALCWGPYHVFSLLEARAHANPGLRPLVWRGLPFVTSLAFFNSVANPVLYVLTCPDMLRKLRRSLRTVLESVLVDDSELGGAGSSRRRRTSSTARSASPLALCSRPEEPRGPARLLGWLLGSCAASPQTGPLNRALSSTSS
# Procedure: Human CRTH2 Binding Assay
# To evaluate CRTH2 binding activities of example compounds, PGD2 binding assay was performed as modifications of former paper (Journal of pharmacology and experimental therapeutics, 2003, 306(2), pp. 463-470).
# HEK293 cells stably transfected with human CRTH2 cDNA were suspended in assay buffer (10 mM BES, 1 mM EDTA, 10 mM MnCl2, pH=7.0) and broken into pieces by strong mixture using injection needle. The membrane preparation at the concentration of 50 μg protein was mixed with various concentrations of compounds. Binding reaction was initiated by an addition of ^3H-labeled PGD2 to a final concentration of 2 nM and the reaction mixture was incubated at 4° C. for 120 minutes. The reaction was terminated by filtration using GF/B plate (PerkinElmer) which was washed with wash buffer (10 mM BES, 0.01% BSA). ^3H-labeled PGD2 which binds to CRTH2 were captured on this plate and the radioactivity was measured. The total and non-specific binding were determined in the absence and presence of 10 μM DK-PGD2. The binding activity of each compound was expressed as IC50 value.
# [1] = test system: Guinea Pig antigen-induced hyper-responsiveness; experiment: Guinea Pig antigen-induced hyper-responsiveness model; type: in vivo; settings: OVA-sensitized male Hartley guinea pigs, AUC of peak inflation pressure versus methacholine dose
# Procedure: Guinea Pig Antigen-Induced Hyper-Responsiveness Model
# To evaluate anti asthma efficacy of the compounds, they were administered to Guinea Pig antigen-induced hyper-responsiveness model which is cited in the literature with minor modifications (Agents Actions, 1992, 37, pp. 162-164).
# Male Hartley guinea pigs were actively sensitized to ovalbumin (OVA) by i.p. injection of 20 mg in 0.9% saline at day 0 and 1 mg at day 2. Animals were exposed for 10 minutes on days 14-21 to an aerosol of 0.5% OVA solution in 0.9% saline or saline alone generated from a nebulizer. All animals were treated with compound by p.o. administration 60 minutes prior to the aerosol and 1 mg/kg pyrilamine by i.p. injection 30 minutes prior to the aerosol. On day 22, animal was anesthetized with urethane (1.5 g/kg). The trachea was cannulated and the animal was mechanically ventilated (60 strokes/minute; 1 mL/100 g body weight) with a small animal respirator. Pulmonary inflation pressure (PIP) was monitored with a pressure transducer. Doses of methacholine (0-14 μg/kg) were administered sequentially (3 minutes intervals) by the right jugular vein to each animal. The area under the peak inflation pressure versus methacholine dose curve (AUC) was calculated for each animal.
IC50 (human CRTH2),Compound,inhibition (%) ([1]; dose 10 mg/kg p.o.),inhibition (%) ([1]; dose 3 mg/kg p.o.),inhibition (%) ([1]; dose 1 mg/kg p.o.)
3.6 nM,"O=C(O)Cn1ccc2c(CCCn3cc(C(c4ccccc4)c4ccccc4)ccc3=O)cccc21 [Example 4, (4-{3-[5-(diphenylmethyl)-2-oxopyridin-1(2H)-yl]propyl}-1H-indol-1-yl)acetic acid]",,,
42 nM,"O=C(O)COc1cccc(CCCn2cc(C(c3ccccc3)c3ccccc3)ccc2=O)c1 [Example 10, (3-{3-[5-(diphenylmethyl)-2-oxopyridin-1(2H)-yl]propyl}phenoxy)acetic acid]",100%,,
13 nM,"C[C@H](Oc1cccc(CCCn2nc(C(c3ccccc3)c3ccccc3)ccc2=O)c1)C(=O)O [Example 59, (2S)-2-(3-{3-[3-(Diphenylmethyl)-6-oxopyridazin-1(6H)-yl]propyl}phenoxy)propanoic acid]",,93%,
14 nM,"O=C(O)CCCOc1cccc(CCCn2nc(C(c3ccccc3)c3ccccc3)ccc2=O)c1 [Example 69, 4-(3-{3-[3-(Diphenylmethyl)-6-oxopyridazin-1(6H)-yl]propyl}phenoxy)butanoic acid]",,,
5.5 nM,"O=C(O)COc1cccc(CCCN2C(=O)OC[C@@H]2C(c2ccccc2)c2ccccc2)c1 [Example 72, (3-{3-[(4S)-4-(Diphenylmethyl)-2-oxo-1,3-oxazolidin-3-yl]propyl}phenoxy)acetic acid]",,,
8.1 nM,"O=C(O)CCCOc1cccc(SCCn2cc(C(c3ccccc3)c3ccccc3)ccc2=O)c1 [Example 84, 4-[3-({2-[5-(Diphenylmethyl)-2-oxopyridin-1(2H)-yl]ethyl}sulfanyl)phenoxy]butanoic acid]",,100%,
4.8 nM,"NS(=O)(=O)c1cccc(C(=O)N(CCCc2cccc(OCC(=O)O)c2)CCC(c2ccccc2)c2ccccc2)c1 [Example 99, [3-(3-{[3-(Aminosulfonyl)benzoyl](3,3-diphenylpropyl)amino}propyl)phenoxy]acetic acid]",,,
18 nM,"O=C(O)CCCOc1cccc(CCCn2nc(C(c3ccc(F)cc3)c3ccc(F)cc3)ccc2=O)c1 [Example 111, 4-[3-(3-{3-[Bis(4-fluorophenyl)methyl]-6-oxopyridazin-1(6H)-yl}propyl)phenoxy]butanoic acid]",,89%,
24 nM,"O=C(O)CCCOc1cccc(CCCn2cc(C(c3ccc(F)cc3)c3ccc(F)cc3)ccc2=O)c1 [Example 112, 4-[3-(3-{5-[Bis(4-fluorophenyl)methyl]-2-oxopyridin-1(2H)-yl}propyl)phenoxy]butanoic acid]",,,60%
7.6 nM,"O=C(O)COc1cccc(CCCn2cc(-c3ccccc3-c3cccc4ccccc34)ccc2=O)c1 [Example 123, [3-(3-{5-[2-(1-Naphthyl)phenyl]-2-oxopyridin-1(2H)-yl}propyl)phenoxy]acetic acid]",,,
